Source: patent US20050004038A1, “Bivalent inhibitors of Glutathione-S-Transferases” (priority 2003, published 2005)
Where two headings read alike, the source gives them in different places.

Tests used:
[1] = molecular target: T1, human glutathione S-transferase P1-1 (GSTP1-1) (Homo sapiens, UniProt P09211); assay: CDNB assay of GST activity and inhibition, GST P1-1; format: biochemical; details: first value of the cell GSTP1-1/GSTA1-1; CDNB assay, 20 nM GST
T1 construct: made in house; host or cells: E. coli
T1 sequence (P09211 2-210 limits assumed): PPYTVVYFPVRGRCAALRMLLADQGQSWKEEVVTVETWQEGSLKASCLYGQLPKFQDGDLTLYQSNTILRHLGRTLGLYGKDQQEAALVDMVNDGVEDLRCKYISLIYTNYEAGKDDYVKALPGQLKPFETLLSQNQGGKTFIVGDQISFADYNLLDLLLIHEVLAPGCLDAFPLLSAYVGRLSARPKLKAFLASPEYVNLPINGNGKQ
Protocol: (§1) GST isozymes. […] The enzyme was incubated with 10 mM dithiothreitol to ensure complete reduction of cysteine residues, followed by extensive dialysis to remove the reducing agent. […] Plasmodium GST (pGST) was a gift from Dr. Katja Becker (Justus Liebig University of Giessen), and murine GSTP and GSTA were gifts from Dr. Dave Eaton (University of Washington). Except where otherwise stated (i.e. testing of pGST in Example 6.4.5 and testing of murine GSTs in Example 6.4.7), GST isozymes tested were from human.
(§2) GST assays. Assays of GST activity and inhibition were performed with chloro-2,4-dinitrobenzene (CDNB) as the electrophilic substrate. Except where otherwise stated, GST concentration was 20 nM. […] Rates were determined by measuring absorption at 340 nm (λmax of glutathione-dinitrobenzene) for 1 minute on a Beckman DU 7400 spectrophotometer. For IC50 determinations, assays were performed at inhibitor concentrations ranging over at least […] (from 100-fold above the IC50 to 100-fold below). Data were fit to a sigmoidal dose-response function using GraphPad Prism to determine the 50% inhibitory concentration.

[2] = molecular target: T2, murine GSTP (Mus musculus, UniProt P19157); assay: CDNB assay, murine GSTP; format: biochemical
T2 construct: gift from Dr. Dave Eaton (University of Washington)
T2 sequence (P19157 2-210 limits assumed): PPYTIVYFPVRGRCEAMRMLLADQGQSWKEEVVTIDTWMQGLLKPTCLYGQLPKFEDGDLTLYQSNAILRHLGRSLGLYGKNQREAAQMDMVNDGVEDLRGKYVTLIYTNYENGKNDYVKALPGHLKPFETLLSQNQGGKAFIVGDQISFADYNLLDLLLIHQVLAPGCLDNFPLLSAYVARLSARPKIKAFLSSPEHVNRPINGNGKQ
Protocol: as §1, §2

[3] = molecular target: T3, human glutathione S-transferase A1-1 (GSTA1-1) (Homo sapiens, UniProt P08263); assay: CDNB assay of GST activity and inhibition, GST A1-1; format: biochemical; details: second value of the cell GSTP1-1/GSTA1-1, 20 nM GST
T3 construct: made in house; host or cells: E. coli
T3 sequence (P08263 1-222): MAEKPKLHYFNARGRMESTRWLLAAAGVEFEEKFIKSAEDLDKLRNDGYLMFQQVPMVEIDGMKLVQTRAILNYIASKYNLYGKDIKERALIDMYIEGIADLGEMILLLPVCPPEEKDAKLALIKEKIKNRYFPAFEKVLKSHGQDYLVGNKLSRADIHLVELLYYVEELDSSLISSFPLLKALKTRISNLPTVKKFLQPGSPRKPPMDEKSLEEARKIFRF
Protocol: as §1, §2

[4] = molecular target: T4, GSTA1-1 (Homo sapiens, UniProt P08263); assay: GSH conjugation assay, absorbance changes at 270 nm, GSTA1-1; format: biochemical; details: absorbance at 270 nm
T4 construct: made in house; host or cells: E. coli
T4 sequence (P08263 1-222): T3 sequence (P08263 1-222)
Source text: (§3) Since EA is known to be enzymatically conjugated to GSH by GSTs, these bivalent inhibitors might be predicted to be potential substrates for GSTA1-1 or GSTP1-1, such that they would also be catalytically conjugated with GSH.

[5] = molecular target: T5, Plasmodium GST (pGST) (Plasmodium falciparum, UniProt Q8ILQ7); assay: CDNB assay, Plasmodium GST; format: biochemical
T5 construct: gift from Dr. Katja Becker (Justus Liebig University of Giessen)
T5 sequence (Q8ILQ7 1-211): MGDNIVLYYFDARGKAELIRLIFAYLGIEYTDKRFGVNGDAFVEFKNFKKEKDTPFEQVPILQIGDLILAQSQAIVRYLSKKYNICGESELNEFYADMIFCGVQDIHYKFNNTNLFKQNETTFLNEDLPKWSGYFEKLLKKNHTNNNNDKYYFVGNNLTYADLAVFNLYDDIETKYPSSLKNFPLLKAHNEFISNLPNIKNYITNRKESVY
Protocol: as §1, §2
The IC50 values for pGST were determined for the bivalent compounds from Tables III and IV using the CDNB assay.

[6] = molecular target: T6, GSTP1-1 (Homo sapiens, UniProt P09211); assay: GSH conjugation assay, absorbance changes at 270 nm, GSTP1-1; format: biochemical; details: absorbance at 270 nm
T6 construct: made in house; host or cells: E. coli
T6 sequence (P09211 2-210 limits assumed): as the sequence (P09211 2-210 limits assumed) above
Source text: as §3

[7] = test system: chloroquine resistant parasites AN143 and INDO21; assay: Isobologram analysis with chloroquine; format: cell-based, Plasmodium falciparum
Protocol: (§4) A single dose of compound IVg^ was added to ring stages of chloroquine resistant Plasmodium falciparum strain Dd2 and incubated for 48 hours. […] An isobologram analysis was performed in two different chloroquine resistant parasites comparing IVg^ with chloroquine (AN143 with a PNG/South America genotype and INDO21 with the Indonesia genotype).

[8] = test system: chloroquine resistant Plasmodium falciparum strain Dd2; assay: Parasite growth inhibition, ring stages, 48 hours; format: cell-based; details: single dose, strain Dd2, 48 hours
Protocol: as §4

[9] = test system: human kidney 293 fibroblasts; assay: IC50 of the bivalent inhibitor alone in the cell line; format: cell-based; details: +/−0.2 SD, read-out: IC50 of inhibitor for the cells
Protocol: (§5) Cells used in the assay were human kidney 293 fibroblasts transfected with the IRES vector plus and minus the coding region for human GST P1-1. Cells were cultured in DMEM supplemented with 10% FBS and 1% penicillin-streptomycin and maintained at 37° C. and 5% CO2.
Once the cells reached 80% confluency, the original media was removed and replaced with either (a) fresh media alone; (b) fresh media containing 1 uM hypericin (a porphyrin analogue employed in photodynamic cancer therapy), (c) the desired concentration of GST inhibitor IVg^, and (d) 1 μM hypericin plus the inhibitor 1 μM IVg^. The cells were incubated for a further 24 hours, in the dark, to allow the hypericin to be incorporated. The media from each plate was then removed and placed into a corresponding 15 ml centrifuge tube. This media is saved to monitor the “floater” cells that may have sloughed off during manipulations and treatment. The attached cells were washed two times with 1×PBS and fresh media is added back to the plates. The plates which were incubated overnight in the presence of hypericin were overlayed with DMEM without the phenol red indicator dye or 1×PBS supplemented with 10% FBS.
(§6) Following light treatment, cells were trypsinized, removed to their corresponding 15 ml tubes and maintained on ice until analyzed via flow cytometry.

[10] = test system: human kidney 293 fibroblasts overexpressing human GST P1-1; assay: Cell killing by hypericin photodynamic treatment, GST P1-1 overexpressing cells; format: cell-based; details: GSTP cells
Protocol: as §5
(§7) Once the cells reached 80% confluency, the original media was removed and replaced with either (a) fresh media alone; (b) fresh media containing 1 uM hypericin (a porphyrin analogue employed in photodynamic cancer therapy), (c) the desired concentration of GST inhibitor IVg^, and (d) 1 μM hypericin plus the inhibitor 1 μM IVg^. The cells were incubated for a further 24 hours, in the dark, to allow the hypericin to be incorporated. The media from each plate was then removed and placed into a corresponding 15 ml centrifuge tube. This media is saved to monitor the “floater” cells that may have sloughed off during manipulations and treatment. The attached cells were washed two times with 1×PBS and fresh media is added back to the plates. The plates which were incubated overnight in the presence of hypericin were overlayed with DMEM without the phenol red indicator dye or 1×PBS supplemented with 10% FBS. […]
as §6

[11] = test system: human kidney 293 fibroblasts transfected with the IRES vector (no GST P1-1); assay: Cell killing by hypericin photodynamic treatment, IRES vector control cells; format: cell-based
Protocol: as §5, §7, §6

[12] = molecular target: T3, human glutathione S-transferase A1-1 (GSTA1-1); details: from the prior art (Ploemen et al.); cited from earlier work
[13] = CDNB assay, read-out: IC50 pGST
[14] = 1 μM inhibitor + 1 μM hypericin + 590 nm light
[15] = 1 uM hypericin + 590 nm light, no inhibitor

Row | SMILES | IC50 [1] [nM] | IC50 [2] [nM] | IC50 [3] [nM] | GSH conjugation by GSTA1-1 [4] | IC50 [5, 13] [µM] | further results
1 | C=C(CC)C(=O)c1ccc(OCC(=O)NCc2cccc(CNC(=O)COc3ccc(C(=O)C(=C)CC)c(Cl)c3Cl)c2)c(Cl)c1Cl [IVc^] | 995 | 990 | 25 |  |  | 
2 | C=C(CC)C(=O)c1ccc(OCC(=O)NCCCCCC(=O)NCc2cc(CNC(=O)CCCCCNC(=O)COc3ccc(C(=O)C(=C)CC)c(Cl)c3Cl)cc(C(N)=O)c2)c(Cl)c1Cl [IVg] | 46.1 |  | 40.2 | no GSH conjugation | ~3.3 | GSH conjugation by GSTP1-1 [6]: no GSH conjugation
3 | C=C(CC)C(=O)c1ccc(OCC(=O)NCCCCCC(=O)NCc2cccc(CNC(=O)CCCCCNC(=O)COc3ccc(C(=O)C(=C)CC)c(Cl)c3Cl)c2)c(Cl)c1Cl [IVg^] | 27 | 18 | 64 |  | ~1.5 | synergy with chloroquine [7]: No evidence of synergy; EC50 [8]: 412 nM; IC50 [9]: 1130 nM; Mean % Cell Death [10, 14]: 22.53%; Mean % Cell Death [11, 14]: 20.27%
4 | C=C(CC)C(=O)c1ccc(OCC(=O)NCCCC(=O)NCCCC(=O)NCCCC(=O)NCc2cc(CNC(=O)CCCNC(=O)CCCNC(=O)CCCNC(=O)COc3ccc(C(=O)C(=C)CC)c(Cl)c3Cl)cc(C(N)=O)c2)c(Cl)c1Cl [IVi] | 142 |  | 96.5 |  |  | IC50 [5]: ~5.5 µM
5 | C=C(CC)C(=O)c1ccc(OCC(=O)O)c(Cl)c1Cl [IVk*, ethacrynic acid, reference compound] |  |  |  | readily conjugated to GSH |  | IC50 [12]: 5 µM
6 | Cc1cc(O)c2c(=O)c3c(O)cc(O)c4c5c(O)cc(O)c6c(=O)c7c(O)cc(C)c8c1c2c(c34)c(c78)c65 [hypericin, reference compound] |  |  |  |  |  | Mean % Cell Death [10, 15]: 11.27%; Mean % Cell Death [11, 15]: 24.63%
